Measured values as given in the NIST ThermoML archive (doi:10.1016/j.jct.2007.01.009).
± gives the expanded uncertainty stated by the source.

Assay: xn = mol fraction of the nth substance listed
Settings: 101 kPa, Liquid, Pycnometric method

Compound: CC(O)CCC(C)O (stereo not drawn) [2,5-hexanediol] + O
- mass density (283.15 K, x1 = 0.0008): 999.67 ± 0.3 kg/m3
- mass density (283.15 K, x1 = 0.002): 999.6 ± 0.3 kg/m3
- mass density (283.15 K, x1 = 0.0037): 999.53 ± 0.3 kg/m3
- mass density (283.15 K, x1 = 0.0073): 999.48 ± 0.3 kg/m3
- mass density (283.15 K, x1 = 0.009): 999.54 ± 0.31 kg/m3
- mass density (283.15 K, x1 = 0.0102): 999.61 ± 0.31 kg/m3
- mass density (283.15 K, x1 = 0.0123): 999.75 ± 0.31 kg/m3
- mass density (283.15 K, x1 = 0.0142): 999.92 ± 0.31 kg/m3
- mass density (283.15 K, x1 = 0.0159): 1000.08 ± 0.31 kg/m3
- mass density (283.15 K, x1 = 0.0177): 1000.27 ± 0.31 kg/m3
- mass density (283.15 K, x1 = 0.0263): 1001.32 ± 0.31 kg/m3
- mass density (283.15 K, x1 = 0.0353): 1002.49 ± 0.31 kg/m3
- mass density (283.15 K, x1 = 0.0516): 1004.41 ± 0.31 kg/m3
- mass density (283.15 K, x1 = 0.0672): 1005.71 ± 0.31 kg/m3
- mass density (283.15 K, x1 = 0.0688): 1005.83 ± 0.32 kg/m3
- mass density (283.15 K, x1 = 0.0821): 1006.35 ± 0.32 kg/m3
- mass density (283.15 K, x1 = 0.098): 1006.33 ± 0.32 kg/m3
- mass density (283.15 K, x1 = 0.112): 1005.71 ± 0.32 kg/m3
- mass density (288.15 K, x1 = 0.0008): 999.06 ± 0.29 kg/m3
- mass density (288.15 K, x1 = 0.002): 998.98 ± 0.29 kg/m3
- mass density (288.15 K, x1 = 0.0037): 998.88 ± 0.29 kg/m3
- mass density (288.15 K, x1 = 0.0073): 998.82 ± 0.29 kg/m3
- mass density (288.15 K, x1 = 0.009): 998.85 ± 0.29 kg/m3
- mass density (288.15 K, x1 = 0.0102): 998.88 ± 0.29 kg/m3
- mass density (288.15 K, x1 = 0.0123): 998.97 ± 0.29 kg/m3
- mass density (288.15 K, x1 = 0.0142): 999.08 ± 0.29 kg/m3
- mass density (288.15 K, x1 = 0.0159): 999.2 ± 0.3 kg/m3
- mass density (288.15 K, x1 = 0.0177): 999.34 ± 0.29 kg/m3
- mass density (288.15 K, x1 = 0.0263): 1000.14 ± 0.3 kg/m3
- mass density (288.15 K, x1 = 0.0353): 1001.07 ± 0.3 kg/m3
- mass density (288.15 K, x1 = 0.0516): 1002.55 ± 0.3 kg/m3
- mass density (288.15 K, x1 = 0.0672): 1003.37 ± 0.3 kg/m3
- mass density (288.15 K, x1 = 0.0688): 1003.42 ± 0.3 kg/m3
- mass density (288.15 K, x1 = 0.0821): 1003.53 ± 0.3 kg/m3
- mass density (288.15 K, x1 = 0.098): 1003.14 ± 0.3 kg/m3
- mass density (288.15 K, x1 = 0.112): 1002.53 ± 0.31 kg/m3
- mass density (293.15 K, x1 = 0.0008): 998.13 ± 0.28 kg/m3
- mass density (293.15 K, x1 = 0.002): 998.04 ± 0.28 kg/m3
- mass density (293.15 K, x1 = 0.0037): 997.94 ± 0.28 kg/m3
- mass density (293.15 K, x1 = 0.0073): 997.86 ± 0.28 kg/m3
- mass density (293.15 K, x1 = 0.009): 997.84 ± 0.28 kg/m3
- mass density (293.15 K, x1 = 0.0102): 997.84 ± 0.28 kg/m3
- mass density (293.15 K, x1 = 0.0123): 997.89 ± 0.28 kg/m3
- mass density (293.15 K, x1 = 0.0142): 997.96 ± 0.28 kg/m3
- mass density (293.15 K, x1 = 0.0159): 998.04 ± 0.28 kg/m3
- mass density (293.15 K, x1 = 0.0177): 998.14 ± 0.28 kg/m3
- mass density (293.15 K, x1 = 0.0263): 998.73 ± 0.29 kg/m3
- mass density (293.15 K, x1 = 0.0353): 999.39 ± 0.29 kg/m3
- mass density (293.15 K, x1 = 0.0516): 1000.35 ± 0.29 kg/m3
- mass density (293.15 K, x1 = 0.0672): 1000.75 ± 0.29 kg/m3
- mass density (293.15 K, x1 = 0.0688): 1000.76 ± 0.29 kg/m3
- mass density (293.15 K, x1 = 0.0821): 1000.63 ± 0.29 kg/m3
- mass density (293.15 K, x1 = 0.098): 1000.02 ± 0.29 kg/m3
- mass density (293.15 K, x1 = 0.112): 999.19 ± 0.29 kg/m3
- mass density (298.15 K, x1 = 0.0008): 996.94 ± 0.29 kg/m3
- mass density (298.15 K, x1 = 0.002): 996.84 ± 0.29 kg/m3
- mass density (298.15 K, x1 = 0.0037): 996.73 ± 0.29 kg/m3
- mass density (298.15 K, x1 = 0.0073): 996.6 ± 0.29 kg/m3
- mass density (298.15 K, x1 = 0.009): 996.58 ± 0.29 kg/m3
- mass density (298.15 K, x1 = 0.0102): 996.58 ± 0.29 kg/m3
- mass density (298.15 K, x1 = 0.0123): 996.6 ± 0.29 kg/m3
- mass density (298.15 K, x1 = 0.0142): 996.64 ± 0.29 kg/m3
- mass density (298.15 K, x1 = 0.0159): 996.68 ± 0.29 kg/m3
- mass density (298.15 K, x1 = 0.0177): 996.74 ± 0.29 kg/m3
- mass density (298.15 K, x1 = 0.0263): 997.13 ± 0.3 kg/m3
- mass density (298.15 K, x1 = 0.0353): 997.56 ± 0.3 kg/m3
- mass density (298.15 K, x1 = 0.0516): 998.09 ± 0.3 kg/m3
- mass density (298.15 K, x1 = 0.0672): 998.16 ± 0.3 kg/m3
- mass density (298.15 K, x1 = 0.0688): 998.14 ± 0.3 kg/m3
- mass density (298.15 K, x1 = 0.0821): 997.8 ± 0.3 kg/m3
- mass density (298.15 K, x1 = 0.098): 996.97 ± 0.3 kg/m3
- mass density (298.15 K, x1 = 0.112): 996.16 ± 0.3 kg/m3
- mass density (303.15 K, x1 = 0.0008): 995.52 ± 0.31 kg/m3
- mass density (303.15 K, x1 = 0.002): 995.4 ± 0.3 kg/m3
- mass density (303.15 K, x1 = 0.0037): 995.27 ± 0.3 kg/m3
- mass density (303.15 K, x1 = 0.0073): 995.14 ± 0.3 kg/m3
- mass density (303.15 K, x1 = 0.009): 995.09 ± 0.3 kg/m3
- mass density (303.15 K, x1 = 0.0102): 995.07 ± 0.3 kg/m3
- mass density (303.15 K, x1 = 0.0123): 995.05 ± 0.3 kg/m3
- mass density (303.15 K, x1 = 0.0142): 995.05 ± 0.3 kg/m3
- mass density (303.15 K, x1 = 0.0159): 995.06 ± 0.3 kg/m3
- mass density (303.15 K, x1 = 0.0177): 995.07 ± 0.31 kg/m3
- mass density (303.15 K, x1 = 0.0263): 995.23 ± 0.31 kg/m3
- mass density (303.15 K, x1 = 0.0353): 995.43 ± 0.31 kg/m3
- mass density (303.15 K, x1 = 0.0516): 995.59 ± 0.31 kg/m3
- mass density (303.15 K, x1 = 0.0672): 995.35 ± 0.31 kg/m3
- mass density (303.15 K, x1 = 0.0688): 995.31 ± 0.31 kg/m3
- mass density (303.15 K, x1 = 0.0821): 994.75 ± 0.31 kg/m3
- mass density (303.15 K, x1 = 0.098): 993.8 ± 0.31 kg/m3
- mass density (303.15 K, x1 = 0.112): 992.78 ± 0.31 kg/m3
- mass density (308.15 K, x1 = 0.0008): 993.87 ± 0.32 kg/m3
- mass density (308.15 K, x1 = 0.002): 993.73 ± 0.32 kg/m3
- mass density (308.15 K, x1 = 0.0037): 993.58 ± 0.32 kg/m3
- mass density (308.15 K, x1 = 0.0073): 993.42 ± 0.32 kg/m3
- mass density (308.15 K, x1 = 0.009): 993.35 ± 0.32 kg/m3
- mass density (308.15 K, x1 = 0.0102): 993.31 ± 0.32 kg/m3
- mass density (308.15 K, x1 = 0.0123): 993.25 ± 0.32 kg/m3
- mass density (308.15 K, x1 = 0.0142): 993.21 ± 0.32 kg/m3
- mass density (308.15 K, x1 = 0.0159): 993.19 ± 0.32 kg/m3
- mass density (308.15 K, x1 = 0.0177): 993.17 ± 0.32 kg/m3
- mass density (308.15 K, x1 = 0.0263): 993.17 ± 0.32 kg/m3
- mass density (308.15 K, x1 = 0.0353): 993.19 ± 0.32 kg/m3
- mass density (308.15 K, x1 = 0.0516): 993 ± 0.32 kg/m3
- mass density (308.15 K, x1 = 0.0672): 992.44 ± 0.32 kg/m3
- mass density (308.15 K, x1 = 0.0688): 992.36 ± 0.32 kg/m3
- mass density (308.15 K, x1 = 0.0821): 991.62 ± 0.32 kg/m3
- mass density (308.15 K, x1 = 0.098): 990.55 ± 0.32 kg/m3
- mass density (308.15 K, x1 = 0.112): 989.51 ± 0.33 kg/m3
